In ChEMBL document CHEMBL1201861, “Genomics of Drug Sensitity in Cancer screening data, Wellcome Trust Sanger Institute”:

Tests used:
Test in all cases: cells
HAL-01 = assay type: functional, cell-based; details: Homo sapiens;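 also: growth inhibition of human HAL-01 cells, read out with a cell viability assay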
Description: SANGER: Inhibition of human HAL-01 cell growth in a cell viability assay.

LC-2-ad = assay type: functional, cell-based, Homo sapiens; details: Homo sapiens, LC-2-ad;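 also: growth inhibition of human LC-2-ad cells, read out with a cell viability assay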
Description: SANGER: Inhibition of human LC-2-ad cell growth in a cell viability assay.

NCI-H82 = assay type: functional, cell-based; details: Homo sapiens;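 also: growth inhibition of NCI-H82 cells, measured with a cell viability readout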
Description: SANGER: Inhibition of human NCI-H82 cell growth in a cell viability assay.

SBC-5 = assay type: functional, cell-based, Homo sapiens; details: Homo sapiens, SBC-5;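 also: cell viability assay read-out, IC50 is the concentration that inhibits growth of the cells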
Description: SANGER: Inhibition of human SBC-5 cell growth in a cell viability assay.

C2BBe1 = assay type: functional, cell-based, Homo sapiens; details: Homo sapiens, C2BBe1;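 also: growth inhibition of C2BBe1 cells, read out through a viability assay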
Description: SANGER: Inhibition of human C2BBe1 cell growth in a cell viability assay.

QIMR-WIL = assay type: functional, cell-based; details: Homo sapiens;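 also: growth inhibition of QIMR-WIL cells, read out with a cell viability assay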
Description: SANGER: Inhibition of human QIMR-WIL cell growth in a cell viability assay.

A498 = assay type: functional, cell-based, Homo sapiens; details: Homo sapiens, A498;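 also: growth inhibition of human A498 cells, read out with a cell viability assay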
Description: SANGER: Inhibition of human A498 cell growth in a cell viability assay.

NB10 = assay type: functional, cell-based, Homo sapiens; details: Homo sapiens, NB10;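 also: growth inhibition of NB10 cells, read out by a cell viability assay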
Description: SANGER: Inhibition of human NB10 cell growth in a cell viability assay.

CAL-120 = assay type: functional, cell-based, Homo sapiens; details: Homo sapiens, CAL-120;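 also: cell growth inhibition, read out as cell viability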
Description: SANGER: Inhibition of human CAL-120 cell growth in a cell viability assay.

IGR-1 = assay type: functional, cell-based, Homo sapiens; details: Homo sapiens, IGR-1;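 also: growth inhibition of human IGR-1 cells, read out with a cell viability assay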
Description: SANGER: Inhibition of human IGR-1 cell growth in a cell viability assay.

SF-126 = assay type: functional, cell-based, Homo sapiens; details: Homo sapiens, SF-126;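 also: growth inhibition of human SF126 cells, read out with a cell viability assay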
Description: SANGER: Inhibition of human SF126 cell growth in a cell viability assay.

FTC-133 = assay type: functional, cell-based, Homo sapiens; details: Homo sapiens, FTC-133
K562 = assay type: functional, cell-based; details: Homo sapiens
Description: SANGER: Inhibition of human K-562 cell growth in a cell viability assay.

NCI-H441 = assay type: functional, cell-based; details: Homo sapiens;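 also: growth inhibition of NCI-H441 cells, read out with a cell viability assay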
Description: SANGER: Inhibition of human NCI-H441 cell growth in a cell viability assay.

TYK-nu = assay type: functional, cell-based, Homo sapiens; details: Homo sapiens, TYK-nu;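 also: growth inhibition of human TYK-nu cells, read out by a cell viability assay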
Description: SANGER: Inhibition of human TYK-nu cell growth in a cell viability assay.

MFE-280 = assay type: functional, cell-based, Homo sapiens; details: Homo sapiens, MFE-280;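 also: growth inhibition of MFE-280 cells, determined with a cell viability readout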
Description: SANGER: Inhibition of human MFE-280 cell growth in a cell viability assay.

MKN-45 = assay type: functional, cell-based, Homo sapiens; details: Homo sapiens, MKN-45;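 also: growth inhibition of human MKN-45 cells, measured with a cell viability assay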
Description: SANGER: Inhibition of human MKN45 cell growth in a cell viability assay.

EW-1 = assay type: functional, cell-based, Homo sapiens; details: Homo sapiens, EW-1;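 also: growth inhibition of the human EW-1 cell line, read out by a cell viability assay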
Description: SANGER: Inhibition of human EW-1 cell growth in a cell viability assay.

HLE = assay type: functional, cell-based, Homo sapiens; details: Homo sapiens, HLE;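 also: growth inhibition of human HLE cells, read out by a cell viability assay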
Description: SANGER: Inhibition of human HLE cell growth in a cell viability assay.

D283 Med = assay type: functional, cell-based, Homo sapiens; details: Homo sapiens, D283 Med
Description: SANGER: Inhibition of human D-283MED cell growth in a cell viability assay.

SW 962 = assay type: functional, cell-based, Homo sapiens; details: Homo sapiens, SW 962;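 also: growth inhibition of human SW962 cells, read out by a cell viability assay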
Description: SANGER: Inhibition of human SW962 cell growth in a cell viability assay.

NB5 = assay type: functional, cell-based, Homo sapiens; details: Homo sapiens, NB5;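 also: growth inhibition of NB5 cells, read out as cell viability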
Description: SANGER: Inhibition of human NB5 cell growth in a cell viability assay.

MG-63 = assay type: functional, cell-based, Homo sapiens; details: Homo sapiens, MG-63;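 also: growth inhibition of human MG-63 cells, read out with a cell viability assay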
Description: SANGER: Inhibition of human MG-63 cell growth in a cell viability assay.

TGBC1TKB = assay type: functional, cell-based, Homo sapiens; details: Homo sapiens, TGBC1TKB;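 also: growth inhibition of TGBC1TKB cells, read out by a cell viability assay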
Description: SANGER: Inhibition of human TGBC1TKB cell growth in a cell viability assay.

SF-268 = assay type: functional, cell-based, Homo sapiens; details: Homo sapiens, SF-268;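 also: growth inhibition of SF-268 cells determined with a cell viability assay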
Description: SANGER: Inhibition of human SF268 cell growth in a cell viability assay.

CWR22R = assay type: functional, cell-based, Homo sapiens; details: Homo sapiens, 22Rv1;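 also: growth inhibition of 22Rv1 cells, read out with a cell viability assay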
Description: SANGER: Inhibition of human 22RV1 cell growth in a cell viability assay.

NCI-H2405 = assay type: functional, cell-based, Homo sapiens; details: Homo sapiens, NCI-H2405;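 also: growth inhibition of the human cell line, read out with a cell viability assay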
Description: SANGER: Inhibition of human NCI-H2405 cell growth in a cell viability assay.

SKG-IIIa = assay type: functional, cell-based, Homo sapiens; details: Homo sapiens, SKG-IIIa;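 also: cell growth inhibition, read out with a cell viability assay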
Description: SANGER: Inhibition of human SKG-IIIa cell growth in a cell viability assay.

TE-6 = assay type: functional, cell-based, Homo sapiens; details: Homo sapiens, TE-6;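 also: growth inhibition of TE-6 cells, read out with a cell viability assay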
Description: SANGER: Inhibition of human TE-6 cell growth in a cell viability assay.

NB17 = assay type: functional, cell-based; details: Homo sapiens;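 also: growth inhibition of NB17 cells, read out with a cell viability assay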
Description: SANGER: Inhibition of human NB17 cell growth in a cell viability assay.

VMRC-RCZ = assay type: functional, cell-based; details: Homo sapiens;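 also: growth inhibition measured with a cell viability assay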
Description: SANGER: Inhibition of human VMRC-RCZ cell growth in a cell viability assay.

EFO-21 = assay type: functional, cell-based, Homo sapiens; details: Homo sapiens, EFO-21;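 also: growth inhibition of EFO-21 cells measured with a viability assay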
Description: SANGER: Inhibition of human EFO-21 cell growth in a cell viability assay.

786-0 = assay type: functional, cell-based, Homo sapiens; details: Homo sapiens
Description: SANGER: Inhibition of human 786-0 cell growth in a cell viability assay.

BFTC-905 = assay type: functional, cell-based, Homo sapiens; details: Homo sapiens, BFTC-905
Description: SANGER: Inhibition of human BFTC-905 cell growth in a cell viability assay.

G-402 = assay type: functional, cell-based, Homo sapiens; details: Homo sapiens, G-402
Description: SANGER: Inhibition of human G-402 cell growth in a cell viability assay.

SN12C = assay type: functional, cell-based, Homo sapiens; details: Homo sapiens, SN12C;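 also: growth inhibition of human SN12C cells, measured by a cell viability assay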
Description: SANGER: Inhibition of human SN12C cell growth in a cell viability assay.

NH-12 = assay type: functional, cell-based, Homo sapiens; details: Homo sapiens, NH-12;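 also: growth inhibition of NH-12 cells, read out with a cell viability assay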
Description: SANGER: Inhibition of human NH-12 cell growth in a cell viability assay.

ES3 = assay type: functional, cell-based, Homo sapiens; details: Homo sapiens, ES3;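 also: growth inhibition of ES3 cells, read out with a cell viability assay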
Description: SANGER: Inhibition of human ES3 cell growth in a cell viability assay.

CHP-212 = assay type: functional, cell-based, Homo sapiens; details: Homo sapiens, CHP-212
Description: SANGER: Inhibition of human CHP-212 cell growth in a cell viability assay.

G-401 = assay type: functional, cell-based, Homo sapiens; details: Homo sapiens, G-401
Description: SANGER: Inhibition of human G-401 cell growth in a cell viability assay.

A4-Fuk = assay type: functional, cell-based; details: Homo sapiens;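 also: growth inhibition of A4-Fuk cells, read out by a cell viability assay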
Description: SANGER: Inhibition of human A4-Fuk cell growth in a cell viability assay.

ES4 = assay type: functional, cell-based, Homo sapiens; details: Homo sapiens, ES4;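 also: growth inhibition of human ES4 cells, read out by a cell viability assay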
Description: SANGER: Inhibition of human ES4 cell growth in a cell viability assay.

A388 = assay type: functional, cell-based, Homo sapiens; details: Homo sapiens, A388;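 also: growth inhibition of human A388 cells, read out with a cell viability assay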
Description: SANGER: Inhibition of human A388 cell growth in a cell viability assay.

Hs-578T = assay type: functional, cell-based, Homo sapiens; details: Homo sapiens, Hs-578T
Description: SANGER: Inhibition of human Hs-578-T cell growth in a cell viability assay.

HH = assay type: functional, cell-based; details: Homo sapiens
Description: SANGER: Inhibition of human HH cell growth in a cell viability assay.

BHT-101 = assay type: functional, cell-based, Homo sapiens; details: Homo sapiens, BHT-101
Description: SANGER: Inhibition of human BHT-101 cell growth in a cell viability assay.

SW-620 = assay type: functional, cell-based, Homo sapiens; details: Homo sapiens, SW-620;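 also: growth inhibition of human SW-620 cells, measured by a cell viability assay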
Description: SANGER: Inhibition of human SW620 cell growth in a cell viability assay.

ME-180 = assay type: functional, cell-based; details: Homo sapiens;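 also: cell viability assay measuring growth inhibition of ME-180 cells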
Description: SANGER: Inhibition of human ME-180 cell growth in a cell viability assay.

HT-3 = assay type: functional, cell-based, Homo sapiens; details: Homo sapiens, HT-3;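 also: growth inhibition measured with a cell viability readout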
Description: SANGER: Inhibition of human HT-3 cell growth in a cell viability assay.

SW 954 = assay type: functional, cell-based, Homo sapiens; details: Homo sapiens, SW 954;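 also: growth inhibition of SW954 human cancer cells, read out as cell viability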
Description: SANGER: Inhibition of human SW954 cell growth in a cell viability assay.

PANC-03-27 = assay type: functional, cell-based, Homo sapiens; details: Homo sapiens, PANC-03-27
Description: SANGER: Inhibition of human PANC-03-27 cell growth in a cell viability assay.

Measured: IC50

CN(Cc1cnc2nc(N)nc(N)c2n1)c1ccc(C(=O)N[C@@H](CCC(=O)O)C(=O)O)cc1 [METHOTREXATE]
0.0795 µM: ES4
0.0316 µM: HH
0.139 µM: QIMR-WIL
0.0223 µM: HAL-01
0.0694 µM: SBC-5 | HT-3
0.168 µM: EW-1
0.197 µM: TYK-nu | MG-63
> 0.2 µM: LC-2-ad | NCI-H82 | C2BBe1 | A498 | NB10 | CAL-120 | IGR-1 | SF-126 | FTC-133 | K562 | NCI-H441 | MFE-280 | MKN-45 | HLE | D283 Med | SW 962 | NB5 | TGBC1TKB | SF-268 | CWR22R | NCI-H2405 | SKG-IIIa | TE-6 | NB17 | VMRC-RCZ | EFO-21 | 786-0 | BFTC-905 | G-402 | SN12C | NH-12 | ES3 | CHP-212 | G-401 | A388 | Hs-578T | BHT-101 | SW-620 | ME-180 | SW 954 | PANC-03-27
0.0382 µM: A4-Fuk
